# Several values for one entry are separate records, joined by “and”; a condition that tells them apart may be missing. Equal values may be shown once. Read-outs that look alike come from different tables or passages of the source. Ends that are not written are not given here.
# B1: NaPin1A: Nicotiana alata type I proteinase inhibitor (protein)
# chain: QSGCPGVTKERWPELLGTPAKFAMQIIQKENPKLTNVQTILNGRPVTEDLRCNRVRLFVNVLDFVVQTPQVG
# modifications: Synthetic construct Amino acid sequence of NaPin1A
# B2: CI-1B: barley type-I inhibitor, recombinant (protein)
# chain: MRSMEGSVPKYPEPTEGSIGASGAKRSWPEVVGMSAEKAKEIILRDKPDAQIEVIPVDAMVPLDFNPNRIFILVAVARTPTVG
# modifications: Synthetic construct Amino acid sequence of CI-1B
# B3: HXP4 + HvCPI6: barley cystatin HvCPI6 and modified defensin HXP4 co-expressed from one construct in corn, SEQ ID NO:83 (protein)
# chain: MANKHLSLSLFLVLLGLSASLASGATSALGRRGVLLGGWSPVKDVNDPHVQELGGWAVAQHASLAKDGLLFRRVTRGEQQVVSGMNYRLFVVAADGSGKRVTYLAQIYEHWSRTRKLTSFKPAAGGEEKKNRECKTESNTFPGICITKPPCRKACISEKFTDGHCSKILRRCLCTKPCVFDEKMTKTGAEILAEEAKTLAAALLEEEIMDN
# modifications: Synthetic construct Amino acid sequence of HvCPI6-L-HXP4-CTPP
# What was measured:
# Fusarium verticilloides = format: cell-based; settings: 3.25 ppm
# Fusarium graminearum [1] = format: cell-based
# Fusarium graminearum [2] = format: cell-based; settings: for inhibition of growth of F. graminearum, more than NaD1: 0.825 ppm; for IC50: read-out: IC50 against Fusarium graminearum (Fgr)
# [3] = system: Colletotrichum graminicola; format: cell-based
# Aspergillus niger = format: cell-based
# [4] = system: Cryptococcus neoformans (C1065); format: cell-based; settings: 13 ppm
# [5] = system: Colletotrichum graminicola; assay: Transgenic corn leaf sheath bioassay, lesion area, C. graminicola; settings: in vivo
# C. neoformans (C2067) = format: cell-based, Cryptococcus neoformans; settings: 6.5 ppm
# [6] = system: Colletotrichum graminicola; format: cell-based; settings: 13 ppm
# [7] = system: Asian soybean rust (Phakopsora pachirhizi); format: cell-based; settings: 10 ppm
# C. gattii = format: cell-based, Cryptococcus gattii
# Fusarium graminearum [8] = settings: in vivo
molecule,measurement,setting,value
"HXP4: NaD2 Loop 1B (HRFKGP) in NaD1 backbone, SEQ ID NO:39 (RECKTESHRFKGPCITKPPCRKACISEKFTDGHCSKILRRCLCTKPC; ends and bridges not checked; cysteine pairing not given here)","inhibition of growth of F. verticilloides, more than NaD1",Fusarium verticilloides,40.9%
same,synergistic effect with protease inhibitors against Fusarium graminearum,Fusarium graminearum [1],greater synergistic effect with protease inhibitors than NaD1
same,"inhibition of growth of F. graminearum, more than NaD1",Fusarium graminearum [2],41.7%
same,synergy with protease inhibitors against Colletotrichum graminicola,[3],synergistic with protease inhibitors
same,"activity expressed as percent of NaD1, A. niger",Aspergillus niger; 13 ppm,greater than 112%
same,"inhibition of growth of A. niger, more than NaD1",Aspergillus niger; 13 ppm,20.6%
same,"inhibition of growth of A. niger, more than NaD1",Aspergillus niger; 26 ppm,at least 10%
same,"inhibition of growth of A. niger, more than NaD1",Aspergillus niger; 53 ppm,at least 10%
same,"activity as percent of the activity of NaD1, C. neoformans (C1065)",[4],more than 596%
same,inhibition of growth of Cryptococcus neoformans (C1065),[4],completely inhibited
same,"Percent inhibition relative of empty vector control (reduction in lesion area), Cgr",[5],26%
same,inhibition of growth of C. neoformans (C2067),C. neoformans (C2067),more than 80%
same,"inhibition of growth of C. graminicola, more than NaD1",[6],61.3%
same,"inhibition of appresorium formation, more than NaD1",[7]; 24 hours,65%
same,"inhibition of germination of Asian soybean rust, more than NaD1",[7]; 24 hours,62%
same,"inhibition of formation of post-appresorium structures, more than NaD1",[7]; 48 hours,59%
same,"inhibition of growth of C. gatti, more than NaD1",C. gattii; 6.5 ppm,38%
same,"inhibition of growth of C. gatti, more than NaD1",C. gattii; 13 ppm,10%
"HXP34: Zea2 Loop 1B (QHHSFP) in NaD1 backbone, SEQ ID NO:40 (RECKTESQHHSFPCITKPPCRKACISEKFTDGHCSKILRRCLCTKPC; ends and bridges not checked; cysteine pairing not given here)","inhibition of growth of F. verticilloides, more than NaD1",Fusarium verticilloides,29.4%
same,"inhibition of growth of F. graminearum, more than NaD1",Fusarium graminearum [2],14.6%
same,"inhibition of growth of C. graminicola, more than NaD1",[6],21.8%
"HXP35: PSD1 Loop 1B (DTYRGV) in NaD1 backbone, SEQ ID NO:41 (RECKTESDTYRGVCITKPPCRKACISEKFTDGHCSKILRRCLCTKPC; ends and bridges not checked; cysteine pairing not given here)","inhibition of growth of F. verticilloides, more than NaD1",Fusarium verticilloides,5.1%
same,"inhibition of growth of F. graminearum, more than NaD1",Fusarium graminearum [2],34.5%
same,"inhibition of growth of C. graminicola, more than NaD1",[6],83.2%
"HXP107: NaD2 Loop 1B in TPP3 backbone, SEQ ID NO:85 (QQICKAPSHRFKGPCFMDSSCRKYCIKEKFTGGHCSKLQRKCLCTKPC; Synthetic construct TPP3 backbone with NaD2 Loop 1B)",IC50,Fusarium graminearum [2],500 nM
"TPP3: Class II solanaceous defensin (Solanum lycopersicum), SEQ ID NO:5, parent protein of HXP107 (QQICKAPSQTFPGLCFMDSSCRKYCIKEKFTGGHCSKLQRKCLCTKPC; Synthetic construct Amino acid sequence of portion of TPP3 (Solanum lycopersicum) containing Loop 1B) [reference compound]",IC50,Fusarium graminearum [2],200 nM
B1,"Ee, expected effect from the additive response (Limpel's formula)",[3],11.8 percent inhibition
same,"Io, percent inhibition observed",[3],69.3 percent inhibition
B2,"Ee, expected effect from the additive response (Limpel's formula)",Fusarium graminearum [1],12.1 percent inhibition and 17.1 percent inhibition
B3,"Percent inhibition relative of empty vector control (reduction in lesion area), Fgr",Fusarium graminearum [8],45%

# Source: US10174339B2 (priority 2011, dated 2019)
